These are literature values, as cited in US12622967B2, “Molecules, formulations, and methods for nutritional support of athletes, patients, and others” (Today, Inc., priority 2022, dated 2026).

The conditions of series [1]: high intensity exercise.
The conditions of series [2]: systemic infusion to target 4 mM blood [lactate]; human experimentation under way, personal communication.

With `CC(O)C(=O)O` (centres unmarked) [lactate], the “time to be oxidized to energy” value in series [1] was “less than 5 min”.
For the compound `CC(O)C(=O)[O-].[Na+]` (centres unmarked) [sodium lactate], the “effect on cerebral LPR (lactate/pyruvate ratio)” value in series [2] is “decreases cerebral LPR”.
